Experimental data from paper PMC7865145, “Identification of existing pharmaceuticals and herbal medicines as inhibitors of SARS-CoV-2 infection” (Proceedings of the National Academy of Sciences of the …, 2021).
Counter-ions that a name gives are not always drawn. Like-named read-outs stand apart in the source and are kept apart here.

Columns and labels:
in vitro = settings: African green monkey, CC50 (μM); for CC50: Vero E6 cells
[1] = tested on: SARS-CoV-2 (hCoV-19/Taiwan/4/2020); assay: microbe, parasite or virus in culture; format: cell-based; settings: for block of viral infection in the cell-based assay (α-glucosidase inhibitors): tested conc. 100 μM (Fig. S4)
[2] = target: Papain-like protease (nsp3) of SARS-CoV-2 (Severe acute respiratory syndrome coronavirus 2, UniProt P0DTD1); assay: biochemical; format: biochemical; settings: 100 uM, FRET-based enzymatic assay, 3 independent experiments, N.I. = no inhibition; for inhibition at 100 µM: read-out: Inhibition % at 100 uM of compounds, Papain-like protease (nsp3)
SARS-CoV-2 = assay: Quantification of SARS-CoV-2 via antibody staining (viral NP protein) in Vero E6 cells; format: cell-based; settings: for IC50: viral titer by antinucleocapsid antibody
[3] = Severe acute respiratory syndrome coronavirus 2, Vero C1008, minimal dose that showed antiinfective effect after virus challenge, incubation 72 h (D3), Vero E6, read-out: CPE (μM) D3
[4] = minimal dose that showed antiinfective effect after virus challenge, incubation 120 h (D5), Vero E6, N.I. = no inhibition, dash = cytotoxicity was observed
[5] = 100 PFU of SARS-CoV-2 (multiplicity of infection 0.025) in Vero E6 cells
[6] = Severe acute respiratory syndrome coronavirus 2, Vero C1008, 100 PFU of SARS-CoV-2 (multiplicity of infection 0.025) in Vero E6 cells
[7] = Severe acute respiratory syndrome coronavirus 2, Vero C1008, 72 h, read-out: CPE (μM) D3
[8] = Severe acute respiratory syndrome coronavirus 2, Vero C1008, 120 h, […], N.I. = no inhibition, dash = cytotoxicity was observed, read-out: CPE (μM) D5
[9] = Vero E6, concentrations used in the screen (10, 3.3 and 1 μM)

For CC1=C(C(=O)OC(C)C)C(c2cccc([N+](=O)[O-])c2)C(C(=O)OC2CN(C(c3ccccc3)c3ccccc3)C2)=C(N)N1 (centres unmarked) [Azelnidipine 10, Azelnidipine], the CC50 at 24 h (in vitro) was 12.9 µM, the minimal effective concentration [1, 3] was 5 µM and the “CPE (μM) D5” value [1, 4] was “N.I”. For the same compound, the “Inhibition % at 100 uM of compounds, Papain-like protease (nsp3)” value (“Inhibition % at 100 uM of compounds” for short) [2] was “N.I”, the IC50 (SARS-CoV-2; [5]) was 5.3 µM and the IC50 (SARS-CoV-2; [6]) was 5.29 µM.

In the case of CC(C)(C)NC(=O)N[C@H](C(=O)N1C[C@H]2[C@@H]([C@H]1C(=O)NC(CC1CCC1)C(=O)C(N)=O)C2(C)C)C(C)(C)C (some centres unmarked) [Boceprevir 2, Boceprevir], the minimal effective concentration [1, 3] is reported as 10 µM, the minimal effective concentration ([1]; Severe acute respiratory syndrome coronavirus 2, Vero C1008, minimal dose that showed antiinfective effect after virus challenge, incubation 120 h (D5), Vero E6, N.I. = no inhibition, dash = cytotoxicity was observed, read-out: CPE (μM) D5) is reported as 10 µM and the “Inhibition % at 100 uM of compounds” value [2] is reported as “N.I”. For the same compound, the IC50 (SARS-CoV-2; [5]) was 50.1 µM and the IC50 (SARS-CoV-2; [6]) was > 50 µM.

COc1ccc2cc1Oc1ccc(cc1)C[C@H]1c3c(cc4c(c3Oc3cc5c(cc3OC)CCN(C)[C@@H]5C2)OCO4)CCN1C [Cepharanthine 4, Cepharanthine] showed a CC50 at 24 h (in vitro) of 12.9 µM, a minimal effective concentration [1, 7] of 3.75 µM and a minimal effective concentration [1, 8] of 7.5 µM. For the same compound, the inhibition at 100 µM [2] was 31.9% and the IC50 (SARS-CoV-2; [6]) was 2.8 µM.

For CCCCc1oc2ccc(NS(C)(=O)=O)cc2c1C(=O)c1ccc(OCCCN(CCCC)CCCC)cc1 [Dronedarone 12, Dronedarone], the CC50 at 24 h (in vitro) was 12.1 µM, the minimal effective concentration [1, 3] was 7.5 µM and the “CPE (μM) D5” value [1, 4] was “N.I”. For the same compound, the “Inhibition % at 100 uM of compounds” value [2] was “significant inhibition”, the inhibition at 100 µM [2] was 78.6% and the IC50 (SARS-CoV-2; [5]) was 4.5 µM. The IC50 (SARS-CoV-2; [6]) was 4.51 µM.

For CC[C@H]1CN2CCc3cc(OC)c(OC)cc3[C@@H]2C[C@@H]1C[C@H]1NCCc2cc(OC)c(OC)cc21 [Emetine 5, Emetine], the CC50 (in vitro) was > 10 µM, the minimal effective concentration [1, 7] was 5 µM and the minimal effective concentration [1, 8] was 10 µM. The IC50 (SARS-CoV-2; [5]) was 0.0004 µM and the IC50 (SARS-CoV-2; [6]) was 0.000397 µM.

With CC(=O)N[C@@H](C)C(=O)N[C@H](C(=O)N[C@@H](Cc1ccccc1)[C@@H](O)[C@H](O)[C@H](Cc1ccccc1)NC(=O)[C@@H](NC(=O)[C@H](C)NC(C)=O)C(C)C)C(C)C [JJS-0309] the “inhibition against SARS-CoV-2 in the cell-based screen” value (“inhibition … in the cell-based screen” below) [1] was “did not show any inhibition”.

In the case of Cc1cccc(C)c1OCC(=O)N[C@@H](Cc1ccccc1)[C@@H](O)C[C@H](Cc1ccccc1)NC(=O)[C@H](C(C)C)N1CCCNC1=O [Lopinavir], the “inhibition … in the cell-based screen” value [1, 9] is reported as “none of these showed inhibition”.

With CO[C@@H]1[C@@H](OC)[C@H](C)[C@@](O)(CC(=O)O)O[C@H]1[C@H](C)[C@H]1O[C@@]2(CC[C@@](C)([C@H]3CC[C@@](C)([C@@H]4O[C@@H]([C@H]5O[C@](C)(O)[C@H](C)C[C@@H]5C)C[C@@H]4O[C@@H]4C[C@H](OC)[C@@H](OC)[C@H](C)O4)O3)O2)C[C@H](O)[C@H]1C [Maduramicin 15, Maduramicin] the CC50 (in vitro) was 6.39 µM, the minimal effective concentration [1, 7] was 0.039 µM and the minimal effective concentration [1, 8] was 0.117 µM. The “Inhibition % at 100 uM of compounds” value [2] was “N.I”, the IC50 (SARS-CoV-2; [5]) was 1.3 µM and the IC50 (SARS-CoV-2; [6]) was 1.32 µM. For the same compound, the “selectivity index (antiviral effect vs cytotoxicity)” value (SARS-CoV-2; Vero E6, CC50 vs IC50) was “no selectivity”.

With CN1C[C@H](O)[C@@H](O)[C@H](O)[C@H]1CO [N-methyl-1-deoxynojirimycin] the “block of viral infection in the cell-based assay (α-glucosidase inhibitors)” value (shortened to “block … (α-glucosidase inhibitors)”) ([1]; Vero E6) was “none was able to efficiently block the viral infection”.

With CC(C)c1nc(CN(C)C(=O)N[C@H](C(=O)N[C@@H](Cc2ccccc2)C[C@H](O)[C@H](Cc2ccccc2)NC(=O)OCc2cncs2)C(C)C)cs1 [Ritonavir] the “inhibition … in the cell-based screen” value [1, 9] was “none of these showed inhibition”.

For CCC[C@H](NC(=O)[C@@H]1[C@H]2CCC[C@H]2CN1C(=O)[C@@H](NC(=O)[C@@H](NC(=O)c1cnccn1)C1CCCCC1)C(C)(C)C)C(=O)C(=O)NC1CC1 [Telaprevir], the “inhibition … in the cell-based screen” value [1, 9] was “none of these showed inhibition”.

For Nc1nc(NC2CC2)c2ncn([C@H]3C=C[C@@H](CO)C3)c2n1 [abacavir sulfate], the “inhibition … in the cell-based screen” value [1, 9] was “no active compound was identified”.

In the case of C[C@H]1O[C@H](O[C@H]2[C@H](O)[C@@H](O)[C@@H](O[C@H]3[C@H](O)[C@@H](O)C(O)O[C@@H]3CO)O[C@@H]2CO)[C@H](O)[C@@H](O)[C@@H]1N[C@H]1C=C(CO)[C@@H](O)[C@H](O)[C@H]1O (some centres unmarked) [acarbose], the “block … (α-glucosidase inhibitors)” value ([1]; Vero E6) is reported as “none was able to efficiently block the viral infection”.

With Nc1nc2c(ncn2COCCO)c(=O)[nH]1 [acyclovir] the “inhibition … in the cell-based screen” value [1, 9] was “no active compound was identified”.

For CC(C)(C)C(=O)OCOP(=O)(COCCn1cnc2c(N)ncnc21)OCOC(=O)C(C)(C)C [adefovir dipivoxyl], the “inhibition … in the cell-based screen” value [1, 9] was “no active compound was identified”.

With CC(C)CN(C[C@@H](O)[C@H](Cc1ccccc1)NC(=O)O[C@H]1CCOC1)S(=O)(=O)c1ccc(N)cc1 [amprenavir] the “inhibition … in the cell-based screen” value [1, 9] was “none of these showed inhibition”.

In the case of COC(=O)N[C@H](C(=O)N[C@@H](Cc1ccccc1)[C@@H](O)CN(Cc1ccc(-c2ccccn2)cc1)NC(=O)[C@@H](NC(=O)OC)C(C)(C)C)C(C)(C)C [atazanavir], the “inhibition … in the cell-based screen” value [1, 9] is reported as “none of these showed inhibition”.

In the case of Nc1ccn(C[C@@H](CO)OCP(=O)(O)O)c(=O)n1 [cidofovir], the “inhibition … in the cell-based screen” value [1, 9] is reported as “no active compound was identified”.

For COC(=O)N[C@H](C(=O)N1CCC[C@H]1c1nc(-c2ccc(-c3ccc(-c4c[nH]c([C@@H]5CCCN5C(=O)[C@@H](NC(=O)OC)C(C)C)n4)cc3)cc2)c[nH]1)C(C)C [daclatasvir], the “inhibition … in the cell-based screen” value [1, 9] was “none of these showed inhibition”.

With CC(C)(C)OC(=O)N[C@H]1CCCCC/C=C\[C@@H]2C[C@@]2(C(=O)NS(=O)(=O)C2CC2)NC(=O)[C@@H]2C[C@@H](OC(=O)N3Cc4cccc(F)c4C3)CN2C1=O [danoprevir] the “inhibition … in the cell-based screen” value [1, 9] was “none of these showed inhibition”.

In the case of CC(C)CN(C[C@@H](O)[C@H](Cc1ccccc1)NC(=O)O[C@H]1CO[C@H]2OCC[C@H]21)S(=O)(=O)c1ccc(N)cc1 [darunavir], the “inhibition … in the cell-based screen” value [1, 9] is reported as “none of these showed inhibition”.

With CC[C@H](CC[C@@H](C)[C@H]1CC[C@H]2[C@@H]3CC=C4C[C@@H](O[C@@H]5O[C@H](CO)[C@@H](O)[C@H](O)[C@H]5O)CC[C@]4(C)[C@H]3CC[C@]12C)C(C)C [daucosterol] the “block … (α-glucosidase inhibitors)” value ([1]; Vero E6) was “none was able to efficiently block the viral infection”.

In the case of CC(C)Nc1cccnc1N1CCN(C(=O)c2cc3cc(NS(C)(=O)=O)ccc3[nH]2)CC1 [delavirdine], the “inhibition … in the cell-based screen” value [1, 9] is reported as “no active compound was identified”.

For O=C1Nc2ccc(Cl)cc2[C@@](C#CC2CC2)(C(F)(F)F)O1 [efavirenz], the “inhibition … in the cell-based screen” value [1, 9] was “no active compound was identified”.

For C=C1[C@H](CO)[C@@H](O)C[C@@H]1n1cnc2c(=O)[nH]c(N)nc21 [entecavir], the “inhibition … in the cell-based screen” value [1, 9] was “no active compound was identified”.

In the case of CC(=O)OCC(CCn1cnc2cnc(N)nc21)COC(C)=O [famciclovir], the “inhibition … in the cell-based screen” value [1, 9] is reported as “no active compound was identified”.

In the case of CC(C)(C)NC(=O)[C@@H]1CN(Cc2cccnc2)CCN1C[C@@H](O)C[C@@H](Cc1ccccc1)C(=O)N[C@H]1c2ccccc2C[C@H]1O [indinavir sulfate], the “inhibition … in the cell-based screen” value [1, 9] is reported as “none of these showed inhibition”.

In the case of OCCN1C[C@H](O)[C@@H](O)[C@H](O)[C@H]1CO [miglitol], the “block … (α-glucosidase inhibitors)” value ([1]; Vero E6) is reported as “none was able to efficiently block the viral infection”.

In the case of Cc1ccnc2c1NC(=O)c1cccnc1N2C1CC1 [nevirapine], the “inhibition … in the cell-based screen” value [1, 9] is reported as “no active compound was identified”.

In the case of Nc1nc2c(ncn2CCC(CO)CO)c(=O)[nH]1 [penciclovir], the “inhibition … in the cell-based screen” value [1, 9] is reported as “no active compound was identified”.

In the case of NC(=O)c1ncn([C@@H]2O[C@H](CO)[C@@H](O)[C@H]2O)n1 [ribavirin], the “inhibition … in the cell-based screen” value [1, 9] is reported as “no active compound was identified”.

In the case of CC(C)(C)NC(=O)[C@@H]1C[C@@H]2CCCC[C@@H]2CN1C[C@@H](O)[C@H](Cc1ccccc1)NC(=O)[C@H](CC(N)=O)NC(=O)c1ccc2ccccc2n1 [saquinavir mesylate], the “inhibition … in the cell-based screen” value [1, 9] is reported as “none of these showed inhibition”.

In the case of Cc1cn([C@@H]2C[C@@H](O)[C@H](CO)O2)c(=O)[nH]c1=O [telbivudine], the “inhibition … in the cell-based screen” value [1, 9] is reported as “no active compound was identified”.

In the case of CC(C)OC(=O)OCOP(=O)(CO[C@H](C)Cn1cnc2c(N)ncnc21)OCOC(=O)OC(C)C [tenofovir disoproxil fumarate], the “inhibition … in the cell-based screen” value [1, 9] is reported as “no active compound was identified”.

With OCC(CO)N[C@H]1C[C@](O)(CO)[C@@H](O)[C@H](O)[C@H]1O [voglibose] the “block … (α-glucosidase inhibitors)” value ([1]; Vero E6) was “none was able to efficiently block the viral infection”.

With Nc1ccn([C@H]2CC[C@@H](CO)O2)c(=O)n1 [zalcitabine] the “inhibition … in the cell-based screen” value [1, 9] was “no active compound was identified”.
